Usually IC50 stands for the concentration at which inhibition is half-maximal.

The values that follow come from patent publication US11932624B2, “MDM2 degraders and uses thereof” (Kymera Therapeutics, Inc., priority 2020, dated 2024).

A value given as a limit tells only on which side of the number the result lay.

The assay relates to RS411 cells. In words: Cell Viability CTG Assay (CellTiter Glo) in RS411 cells. It counts as cell-based. The following applies: Homo sapiens, RS4-11, 24 h, duration 1 day. The method, boiled down:
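Read-out was CellTiter Glo luminescence, taken after 10 min at RT, following 1-4 days of incubation at 37 °C, 5% CO2. Cells were plated at 1000 per well with an 11-point, 3-fold series starting at 10 μM final in 0.2% DMSO. IC50 values are given as letter-code ranges.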
(In general: ATP-based viability assays read luminescence as a measure of living cells.)
`Cn1c(=O)n(C2CCC(=O)NC2=O)c2ccc(CN3CCC(OC4CCN(C[C@H]5CC[C@H](NC(=O)[C@@H]6NC7(CCCCC7)[C@@]7(C(=O)Nc8cc(Cl)ccc87)[C@H]6c6cccc(Cl)c6F)CC5)CC4)CC3)cc21` (stereo partly drawn) [I-117] registered an IC50 of less than 50 nM.

`Cn1c(=O)n(C2CCC(=O)NC2=O)c2cccc(/C=C/C3CCN(C[C@H]4CC[C@H](CNC(=O)[C@@H]5NC6(CCCCC6)[C@@]6(C(=O)Nc7cc(Cl)ccc76)[C@H]5c5cccc(Cl)c5F)CC4)CC3)c21` (stereo partly drawn) [I-118] came in with an IC50 of 50 to 100 nM.

For the compound `O=C1CCN(c2cnc3cc(C#CC4CCN(C[C@H]5CC[C@H](NC(=O)[C@@H]6NC7(CCCCC7)[C@@]7(C(=O)Nc8cc(Cl)ccc87)[C@H]6c6cccc(Cl)c6F)CC5)CC4)ccn23)C(=O)N1` [I-119], the IC50 was less than 50 nM.

Regarding `Cn1c(=O)n(C2CCC(=O)NC2=O)c2ccc(C#CCCCNC(=O)[C@H]3CC[C@H](N(C)C(=O)[C@@H]4NC5(CCCCC5)[C@@]5(C(=O)Nc6cc(Cl)ccc65)[C@H]4c4cccc(Cl)c4F)CC3)cc21` (stereo partly drawn) [I-120], the IC50 is more than 1000 nM.

`Cn1c(=O)n(C2CCC(=O)NC2=O)c2ccc(CCCN3CCN(Cc4ccc(NC(=O)[C@@H]5NC6(CCCCC6)[C@@]6(C(=O)Nc7cc(Cl)ccc76)[C@H]5c5cccc(Cl)c5F)cc4)CC3)cc21` (stereo partly drawn) [I-121]: the IC50 was less than 50 nM.

Regarding `Cn1c(=O)n(C2CCC(=O)NC2=O)c2ccc(C#CC3CN(C[C@H]4C[C@H](NC(=O)[C@@H]5NC6(CCC(C)(C)CC6)[C@@]6(C(=O)Nc7cc(Cl)ccc76)[C@H]5c5cccc(Cl)c5F)C4)C3)cc21` (stereo partly drawn) [I-122], the concentration for half-maximal inhibition (IC50) is less than 50 nM.

Consider `CN1[C@@H](C(=O)N[C@H]2CC[C@H](CN3CCC(C#Cc4ccc5c(c4)n(C)c(=O)n5C4CCC(=O)NC4=O)CC3)CC2)[C@H](c2cccc(Cl)c2F)[C@]2(C(=O)Nc3cc(Cl)ccc32)C12CCC(C)(C)CC2` (stereo partly drawn) [I-123], for which the IC50 is less than 50 nM.

Regarding `CN1[C@@H](C(=O)N[C@H]2C[C@@](C)(O)C2)[C@H](c2cccc(Cl)c2F)[C@]2(C(=O)N(CCCCCCCC#Cc3ccc4c(c3)n(C)c(=O)n4C3CCC(=O)NC3=O)c3cc(Cl)ccc32)C12CCCCC2` (stereo partly drawn) [I-124], the IC50 is more than 1000 nM.

As for `Cn1c(=O)n(C2CCC(=O)NC2=O)c2ccc(CCCCCNC[C@H]3CC[C@H](NC(=O)[C@@H]4NC5(CCCCC5)[C@@]5(C(=O)Nc6cc(Cl)ccc65)[C@H]4c4cccc(Cl)c4F)CC3)cc21` (stereo partly drawn) [I-125], the IC50 was less than 50 nM.

Take `Cn1c(=O)n(C2CCC(=O)NC2=O)c2ccc(CCCCCNCc3ccc(NC(=O)[C@@H]4NC5(CCCCC5)[C@@]5(C(=O)Nc6cc(Cl)ccc65)[C@H]4c4cccc(Cl)c4F)cc3)cc21` (stereo partly drawn) [I-126]: the IC50 is less than 50 nM.

`C#CCCCCCCCC1N(c2ccc(C(=O)NC)cc2OC)C(=O)[C@H]2[C@H](c3cccc(Cl)c3F)[C@@](C#N)(c3ccc(Cl)cc3F)[C@H](CC(C)(C)C)N12` (stereo partly drawn) [I-127, 4-[(5S,6R,7S,7aR)-7-(3-chloro-2-fluoro-phenyl)-6-(4-chloro-2-fluoro-phenyl)-6-cyano-5-(2,2-dimethylpropyl)-3-non-8-ynyl-1-oxo-3,5,7,7a-tetrahydropyrrolo[1,2-c]imidazol-2-yl]-3-methoxy-N-methyl-benzamide] came in with an IC50 of more than 1000 nM.

In turn, `C#CCCCCCCCN1C(=O)[C@@]2(c3ccc(Cl)cc31)[C@@H](c1cccc(Cl)c1F)[C@H](C(=O)N[C@H]1C[C@@](C)(O)C1)N(C)C21CCCCC1` [I-128, (3′R,4'S,5′R)-6″-chloro-4′-(3-chloro-2-fluorophenyl)-N-((1s,3S)-3-hydroxy-3-methylcyclobutyl)-1′-methyl-1″-(non-8-yn-1-yl)-2″-oxodispiro[cyclohexane-1,2′-pyrrolidine-3′,3″-indoline]-5′-carboxamide] registered an IC50 of more than 1000 nM.

`C#CCCCCCCCN1C(=O)[C@@]2(c3ccc(Cl)cc31)[C@@H](c1cccc(Cl)c1F)[C@H](C(=O)O)N(C)C21CCCCC1` [I-129, (3′R,4'S,5′R)-6″-chloro-4′-(3-chloro-2-fluorophenyl)-1′-methyl-1″-(non-8-yn-1-yl)-2″-oxodispiro[cyclohexane-1,2′-pyrrolidine-3′,3″-indoline]-5′-carboxylic acid] displayed an IC50 of more than 1000 nM.

`CN1[C@@H](C(=O)NC23CCC(C(=O)N4CCC(C#Cc5ccc6c(c5)n(C)c(=O)n6C5CCC(=O)NC5=O)CC4)(CC2)CC3)[C@H](c2cccc(Cl)c2F)[C@]2(C(=O)Nc3cc(Cl)ccc32)C12CCCCC2` (stereo partly drawn) [I-130, (3′R,4'S,5′R)-6″-chloro-4′-(3-chloro-2-fluorophenyl)-N-(4-(4-((1-(2,6-dioxopiperidin-3-yl)-3-methyl-2-oxo-2,3-dihydro-1H-benzo[d]imidazol-5-yl)ethynyl)piperidine-1-carbonyl)bicyclo[2.2.2]octan-1-yl)-1′-methyl-2″-oxodispiro[cyclohexane-1,2′-pyrrolidine-3′,3″-indoline]-5′-carboxamide] came in with a half-inhibitory concentration (IC50) of less than 50 nM.

Compound `CCN1[C@@H](C(=O)NC23CCC(CN(C)CCCCCc4ccc5c(c4)n(C)c(=O)n5C4CCC(=O)NC4=O)(CC2)CC3)[C@H](c2cccc(Cl)c2F)[C@]2(C(=O)Nc3cc(Cl)ccc32)C12CCCCC2` (stereo partly drawn) [I-131, (3′R,4'S,5′R)-6″-chloro-4′-(3-chloro-2-fluorophenyl)-N-(4-(((5-(1-(2,6-dioxopiperidin-3-yl)-3-methyl-2-oxo-2,3-dihydro-1H-benzo[d]imidazol-5-yl)pentyl)(methyl)amino)methyl)bicyclo[2.2.2]octan-1-yl)-1′-ethyl-2″-oxodispiro[cyclohexane-1,2′-pyrrolidine-3′,3″-indoline]-5′-carboxamide] returned an IC50 of 50 to 100 nM.

In turn, `O=C1CCC(N2Cc3c(C#CC4CCN(C(=O)[C@H]5CC[C@H](NC(=O)[C@@H]6NC7(CCCCC7)[C@@]7(C(=O)Nc8cc(Cl)ccc87)[C@H]6c6cccc(Cl)c6F)CC5)CC4)cccc3C2=O)C(=O)N1` (stereo partly drawn) [I-134] displayed an IC50 of less than 50 nM.

Compound `CC(C)(C)C[C@@H]1N[C@@H](C(=O)N[C@H]2CC[C@H](CN3CCC(C#Cc4ccn5c(N6CCC(=O)NC6=O)cnc5c4)CC3)CC2)[C@H](c2cccc(Cl)c2F)[C@@]1(C#N)c1ccc(Cl)cc1F` [I-135] had an IC50 of more than 1000 nM.

Compound `Cn1c(=O)n(C2CCC(=O)NC2=O)c2ccc(C#CCCN3CCN(C(=O)[C@H]4CC[C@H](NC(=O)[C@@H]5NC6(CCCCC6)[C@@]6(C(=O)Nc7cc(Cl)ccc76)[C@H]5c5cccc(Cl)c5F)CC4)CC3)cc21` (stereo partly drawn) [I-136] yielded an IC50 of less than 50 nM.

In turn, `Cn1c(=O)n(C2CCC(=O)NC2=O)c2cccc(C3CCN(C(=O)[C@H]4CC[C@H](NC(=O)[C@@H]5NC6(CCC(C)(C)CC6)[C@@]6(C(=O)Nc7cc(Cl)ccc76)[C@H]5c5cccc(Cl)c5F)CC4)CC3)c21` (stereo partly drawn) [I-137] returned an IC50 of less than 50 nM.

The compound `Cn1c(=O)n(C2CCC(=O)NC2=O)c2ccc(CCC3CCN(CCNC(=O)[C@@H]4NC5(CCCCC5)[C@@]5(C(=O)Nc6cc(Cl)ccc65)[C@H]4c4cccc(Cl)c4F)CC3)cc21` (stereo partly drawn) [I-138] yielded an IC50 of more than 1000 nM.

`Cn1c(=O)n(C2CCC(=O)NC2=O)c2cccc(CN3CCC(OC4CCN(Cc5ccc(NC(=O)[C@@H]6NC7(CCCCC7)[C@@]7(C(=O)Nc8cc(Cl)ccc87)[C@H]6c6cccc(Cl)c6F)cc5)CC4)CC3)c21` (stereo partly drawn) [I-139] gave an IC50 of less than 50 nM.

Regarding `Cn1c(=O)n(C2CCC(=O)NC2=O)c2cccc(C#CC3CCN(C[C@H]4CC[C@H](CNC(=O)[C@@H]5NC6(CCCCC6)[C@@]6(C(=O)Nc7cc(Cl)ccc76)[C@H]5c5cccc(Cl)c5F)CC4)CC3)c21` (stereo partly drawn) [I-140], the IC50 was in the range of 500 to 1000 nM.

`Cn1c(=O)n(C2CCC(=O)NC2=O)c2cccc(CCCN3CCN(CCCNC(=O)[C@@H]4NC5(CCCCC5)[C@@]5(C(=O)Nc6cc(Cl)ccc65)[C@H]4c4cccc(Cl)c4F)CC3)c21` (stereo partly drawn) [I-141]: the IC50 was more than 1000 nM.

Compound `O=C1CCN(c2cncc3cc(C#CC4CCN(C[C@H]5CC[C@H](NC(=O)[C@@H]6NC7(CCCCC7)[C@@]7(C(=O)Nc8cc(Cl)ccc87)[C@H]6c6cccc(Cl)c6F)CC5)CC4)ccc23)C(=O)N1` [I-142] had an IC50 of 50 to 100 nM.

With `O=C1CCC(N2Cc3c(C#CC4CCN(C(=O)C56CCC(NC(=O)[C@@H]7NC8(CCCCC8)[C@@]8(C(=O)Nc9cc(Cl)ccc98)[C@H]7c7cccc(Cl)c7F)(CC5)CC6)CC4)cccc3C2=O)C(=O)N1` (stereo partly drawn) [I-143], the IC50 is less than 50 nM.

`O=C1CCN(c2cnc3cc(C4CCN(C(=O)c5ccc(NC(=O)[C@@H]6NC7(CCCCC7)[C@@]7(C(=O)Nc8cc(Cl)ccc87)[C@H]6c6cccc(Cl)c6F)cc5)CC4)ccn23)C(=O)N1` [I-144] displayed an IC50 of 50 to 100 nM.

With `O=C1CCN(c2cncc3c(C#CC4CCN(C[C@H]5CC[C@H](NC(=O)[C@@H]6NC7(CCCCC7)[C@@]7(C(=O)Nc8cc(Cl)ccc87)[C@H]6c6cccc(Cl)c6F)CC5)CC4)cccc23)C(=O)N1` [I-146], the IC50 was in the range of 100 to 500 nM.

Turning to `Cn1c(=O)n(C2CCC(=O)NC2=O)c2ccc(CCCN3CCN(C[C@H]4CC[C@H](NC(=O)[C@@H]5NC6(CCC(C)(C)CC6)[C@@]6(C(=O)Nc7cc(Cl)ccc76)[C@H]5c5ccnc(Cl)c5F)CC4)CC3)cc21` (stereo partly drawn) [I-147], the IC50 is less than 50 nM.

For `Cn1c(=O)n(C2CCC(=O)NC2=O)c2cccc(C#CC3CCN(C[C@H]4CC[C@H](NC(=O)[C@@H]5NC6(CCC(C)(C)CC6)[C@@]6(C(=O)Nc7cc(Cl)ccc76)[C@H]5c5ccnc(Cl)c5F)CC4)CC3)c21` (stereo partly drawn) [I-148], the IC50 is less than 50 nM.

As for `Cn1c(=O)n(C2CCC(=O)NC2=O)c2ccc(C#CC3CCN(C[C@H]4CC[C@H](NC(=O)[C@@H]5NC6(CCC(C)(C)CC6)[C@@]6(C(=O)Nc7cc(Cl)ccc76)[C@H]5c5ccnc(Cl)c5F)CC4)CC3)cc21` (stereo partly drawn) [I-149], the IC50 was less than 50 nM.

With `O=C1CCN(c2cnc3c(C#CC4CCN(C[C@H]5CC[C@H](NC(=O)[C@@H]6NC7(CCCCC7)[C@@]7(C(=O)Nc8cc(Cl)ccc87)[C@H]6c6cccc(Cl)c6F)CC5)CC4)cccn23)C(=O)N1` [I-150], the 50% inhibitory concentration (IC50) is less than 50 nM.

As to `Cn1c(=O)n(C2CCC(=O)NC2=O)c2ccc(CCCCCNC(=O)[C@H]3CC[C@H](NC(=O)[C@@H]4NC5(CCC(C)(C)CC5)[C@@]5(C(=O)Nc6cc(Cl)ccc65)[C@H]4c4ccnc(Cl)c4F)CC3)cc21` (stereo partly drawn) [I-151], the IC50 lay in the range of 100 to 500 nM.

`Cn1c(=O)n(C2CCC(=O)NC2=O)c2ccc(C(=O)CC3CCN(C[C@H]4CC[C@H](NC(=O)[C@@H]5NC6(CCOCC6)[C@@]6(C(=O)Nc7cc(Cl)ccc76)[C@H]5c5cccc(Cl)c5F)CC4)CC3)cc21` (stereo partly drawn) [I-152] registered an IC50 of 500 to 1000 nM.
